Where “and” joins values, the source holds several entries; their conditions need not be identical. Equal entries are not always repeated. Marks after values point to notes of the source that are not given here.
Tests used:
[1] = DPPH radical scavenging assay; conditions: average inhibition, concentration range 0.0245 to 0.268 μM, n = 3
Procedure: The DPPH (2,2-diphenyl-1-picrylhydrazyl) radical scavenging assay was conducted to evaluate the antioxidant activity of compounds 5–12 following the method outlined by Chong et al. with minor modifications. A 1 mL sample with a concentration range of 0.0245 to 0.268 μM was introduced to a 1 mL methanol solution of DPPH ([…]) and vortexed. Following a 20-min incubation at 25 °C, absorbance was assessed at 527 nm using a UV-vis spectrophotometer, with blank as reference. Ascorbic acid served as a positive control. The negative control consists of a setup without samples (ascorbic acid and synthetic compounds). The percentage of DPPH free radical inhibition was determined using Equation (1) provided below.
% of DPPH radical scavenging activity was calculated using the following equation:(1) AA%=100−[Abs sample−Abs blank100/Abs control] • Equation (1) where: • Abs control = absorbance of the control. • Abs sample = absorbance of the sample.

[2] = tested on: BSA-glucose; experiment: BSA-glucose antiglycation assay; parameters: species or system bovine; conditions: 7 days, 37 °C, pH 7.4, n = 3; read-out: BSA-glucose glycation IC50
Procedure: The BSA-glucose assay is conducted according to the methodology outlined by Mridula et al.. […] The reaction mixture was thoroughly mixed and incubated for 5 min. Following incubation, 0.5 mL of sodium azide was added to each tube. The tubes underwent incubation at 37 °C in the absence of light for a duration of seven days. Aminoguanidine is used as a positive control. Following a seven-day incubation period, the samples were analyzed with the Omega microplate reader (BMG LABTECH, Ortenberg, Germany), measuring fluorescence intensity at an excitation wavelength of 370 nm and an emission wavelength of 440 nm. The experiment was conducted in triplicate.

[3] = target: T1, pancreatic lipase (Sus scrofa, UniProt P00591); experiment: In vitro pancreatic lipase inhibition assay; format: biochemical; conditions: porcine pancreas powder, pNPB substrate, n = 3
T1 construct: The enzyme source utilized was porcine pancreas powder; from tissue; host or cells: porcine pancreas (powder)
T1 sequence (P00591 1-450): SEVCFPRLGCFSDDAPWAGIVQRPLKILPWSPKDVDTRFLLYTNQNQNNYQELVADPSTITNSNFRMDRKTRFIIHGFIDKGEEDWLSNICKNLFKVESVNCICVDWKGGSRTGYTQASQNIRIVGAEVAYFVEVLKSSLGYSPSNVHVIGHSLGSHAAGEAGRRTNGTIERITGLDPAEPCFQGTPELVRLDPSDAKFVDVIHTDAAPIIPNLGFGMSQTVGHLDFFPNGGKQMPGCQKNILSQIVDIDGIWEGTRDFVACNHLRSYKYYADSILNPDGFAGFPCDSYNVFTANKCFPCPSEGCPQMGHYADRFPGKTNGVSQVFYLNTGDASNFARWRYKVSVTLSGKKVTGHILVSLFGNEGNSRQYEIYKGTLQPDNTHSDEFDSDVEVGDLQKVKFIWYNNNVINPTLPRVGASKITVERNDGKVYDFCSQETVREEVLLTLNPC
Procedure: The pancreatic lipase inhibition assay is conducted following the method outlined by Ajayi et al. (2022) with minor modifications. The enzyme source utilized was porcine pancreas powder at a concentration of 0.1 mg·mL^−1 in Tris–HCl buffer, pH 8.0. In a 96-well plate, 50 μL of phosphate–buffer solution (pH 7.0), 50 μL of pNPB (500 μM), and 50 μL of test samples 5–12 with concentrations ranging from 0.0245 to 0.268 μM were pipetted and mixed thoroughly. Fifty microliters of pancreatic enzyme were added to the resultant mixture and incubated at room temperature for 30 min. The resulting yellow p-nitrophenol was measured spectrophotometrically at 405 nm. Control was conducted concurrently without the addition of a test sample. […] PL inhibition was determined using the following formula: PL inhibition (%) = [(Activity of control − activity of test)/activity of control] × 100. The IC50 is determined utilizing GraphPad 10 software (GraphPad Software, LLC, San Diego, CA, USA).

[4] = tested on: differentiated 3T3-L1 adipocytes; experiment: Intracellular ROS production (DCFH-DA, AAPH-stimulated); format: cell-based; conditions: 24 h treatment
Procedure: Differentiation of 3T3-L1 cells was performed within one week through culturing in MDI medium, which consisted of 0.5 mM 3-isobutyl-1-methylxanthine, 1 μM dexamethasone, and 1 μg/mL insulin, for 48 h in 10% FBS-DMEM. Subsequently, the cells were transferred to fresh 10% FBS and 90% DMEM supplemented with 1 μg/mL insulin.
On day 8 of differentiation, intracellular ROS levels in 3T3 L1 cells were assessed using the oxidation-sensitive fluorogenic probe 2′,7′-dichlorodihydrofluorescein-diacetate (DCFH-DA), following a method established by Forbes-Hernández et al., with minor modification. Post-differentiation, the cells were treated with the respective doses of the compounds for a period of 24 h. Following this, the cells underwent incubation with DCFH-DA (25 μM) at 37 °C for a duration of 30 min in the absence of light. Consequently, the cells were stimulated with 1 mM AAPH as a ROS initiator for a duration of 1 h. The density of light was measured using a spectrofluorometer with an excitation wavelength of 480 nm and an emission wavelength of 530 nm.

[5] = Chelating capacity (ferrozine) assay; conditions: 0.0245 to 0.268 μM
Procedure: Chelating capacity assay is conducted following the method outlined by Chong et al. with minor modifications. Samples of 0.1 mL with concentrations ranging from 0.0245 to 0.268 μM were combined with 0.5 mL of a […] and 0.2 mL of a 5 mM ferrozine solution. Then, a 10-min incubation at room temperature, absorbance was recorded at 562 nm using a blank solution in a 96-well plate reader. EDTA served as a positive control. The negative control consists of a sample devoid of any substances, including EDTA and synthetic compounds. The percentage of ferrous chelation was calculated using the Equation (1).

Work on O=S(=O)(O)CCCN1c2ccccc2Sc2cc3ccccc3nc21 [Compound 5, 3-(quino[3,2-b]benzo[1,4]thiazin-6-yl)propane-1-sulfonic acid] yielded a DPPH mean inhibition [1] of 5.49%, an IC50 [2] of 790 nM and an IC50 [3] of 1570 nM. For the same compound, the “% ROS Generation” value ([4]; 0.02 μM) was 208.69 ± 13.07% and 208.69 ± 13.07 ^a %, the “% ROS Generation” value ([4]; 0.06 μM) was 142.87 ± 15.43 ^b % and the “% ROS Generation” value ([4]; 0.1 μM) was 76.83 ± 0.0 ^c %. The “% ROS Generation” value ([4]; 0.2 μM) was 39.72 ± 6.30 ^c % and the “% ROS Generation” value ([4]; 0.25 μM) was 39.24 ± 0.0 ^c %.
In the case of O=S(=O)(O)CCCN1c2ccc(F)cc2Sc2cc3ccccc3nc21 [Compound 6, 3-(9-fluoroquino[3,2-b]benzo[1,4]thiazin-6-yl)propane-1-sulfonic acid], the DPPH mean inhibition [1] is reported as 3.45%, the IC50 [2] is reported as 1570 nM and the IC50 [3] is reported as 1240 nM. For the same compound, the “% ROS Generation” value ([4]; 0.02 μM) was 137.15 ± 9.37 ^a %, the “% ROS Generation” value ([4]; 0.06 μM) was 126.66 ± 2.43 ^a % and the “% ROS Generation” value ([4]; 0.1 μM) was 88.31 ± 3.13 ^b %. For the same compound, the “% ROS Generation” value ([4]; 0.2 μM) was 37.15 ± 9.37% and 69.68 ± 7.12 ^c % and the “% ROS Generation” value ([4]; 0.25 μM) was 63.73 ± 1.04% and 63.73 ± 1.04 ^c %.
For O=S(=O)(O)CCCN1c2ccc(Cl)cc2Sc2cc3ccccc3nc21 [Compound 7, 3-(9-chloro[3,2-b]benzo[1,4]thiazin-6-yl)propane-1-sulfonic acid], the DPPH mean inhibition [1] was 8.47%, the IC50 [2] was 4130 nM and the IC50 [3] was 890 nM. For the same compound, the “% ROS Generation” value ([4]; 0.02 μM) was 143.18 ± 10.65% and 143.18 ± 10.65 ^a %, the “% ROS Generation” value ([4]; 0.06 μM) was 113.48 ± 10.27 ^a % and the “% ROS Generation” value ([4]; 0.1 μM) was 33.27 ± 6.16 ^b %. The “% ROS Generation” value ([4]; 0.2 μM) was 15.63 ± 2.74 ^b % and the “% ROS Generation” value ([4]; 0.25 μM) was 14.96 ± 1.25% and 14.96 ± 1.25 ^b %.
With CSc1ccc2c(c1)Sc1cc3ccccc3nc1N2CCCS(=O)(=O)O [Compound 8, 3-(9-methylthio[3,2-b]benzo[1,4]thiazin-6-yl)propane-1-sulfonic acid] the DPPH mean inhibition [1] was 7.36%, the IC50 [2] was 980 nM and the IC50 [3] was 1320 nM. The “% ROS Generation” value ([4]; 0.02 μM) was 149.62 ± 6.71% and 149.62 ± 6.71 ^a %, the “% ROS Generation” value ([4]; 0.06 μM) was 101.04 ± 7.69 ^b % and the “% ROS Generation” value ([4]; 0.1 μM) was 71.47 ± 2.98 ^c %. The “% ROS Generation” value ([4]; 0.2 μM) was 62.94 ± 4.59 ^c % and the “% ROS Generation” value ([4]; 0.25 μM) was 50.89 ± 2.85% and 50.89 ± 2.85 ^d %.
With O=S(=O)(O)CCCCN1c2ccccc2Sc2cc3ccccc3nc21 [Compound 9, 4-(quino[3,2-b]benzo[1,4]thiazin-6-yl)butane-1-sulfonic acid] the DPPH mean inhibition [1] was 2.45%, the IC50 [2] was 1090 nM and the IC50 [3] was 670 nM and 477 nM. For the same compound, the “% ROS Generation” value ([4]; 0.02 μM) was 169.62 ± 13.81% and 169.62 ± 13.81 ^a %, the “% ROS Generation” value ([4]; 0.06 μM) was 151.45 ± 25.13 ^ab % and the “% ROS Generation” value ([4]; 0.1 μM) was 151.54 ± 32.18 ^ab %. For the same compound, the “% ROS Generation” value ([4]; 0.2 μM) was 61.36 ± 1.58 ^c % and the “% ROS Generation” value ([4]; 0.25 μM) was 26.38 ± 1.73% and 26.38 ± 1.73 ^c %.
For O=S(=O)(O)CCCCN1c2ccc(F)cc2Sc2cc3ccccc3nc21 [Compound 10, 4-(9-fluoroquino[3,2-b]benzo[1,4]thiazin-6-yl)butane-1-sulfonic acid], the DPPH mean inhibition [1] was 6.21%, the IC50 [2] was 2240 nM and the IC50 [3] was 477 nM. For the same compound, the “% ROS Generation” value ([4]; 0.02 μM) was 103.85 ± 1.17% and 103.85 ± 1.17 ^a %, the “% ROS Generation” value ([4]; 0.06 μM) was 74.74 ± 2.90 ^b % and the “% ROS Generation” value ([4]; 0.1 μM) was 69.81 ± 5.23 ^b %. The “% ROS Generation” value ([4]; 0.2 μM) was 52.56 ± 4.14 ^c % and the “% ROS Generation” value ([4]; 0.25 μM) was 47.16 ± 3.71% and 47.16 ± 3.71 ^c %.
Compound O=S(=O)(O)CCCCN1c2ccc(Cl)cc2Sc2cc3ccccc3nc21 [Compound 11, 4-(9-chloro[3,2-b]benzo[1,4]thiazin-6-yl)butane-1-sulfonic acid] has a DPPH mean inhibition [1] of 8.47%, an IC50 [2] of 1890 nM and an IC50 [3] of 870 nM. For the same compound, the “% ROS Generation” value ([4]; 0.02 μM) was 104.90 ± 5.3% and 104.90 ± 5.31 ^a %, the “% ROS Generation” value ([4]; 0.06 μM) was 35.75 ± 11.03 ^c % and the “% ROS Generation” value ([4]; 0.1 μM) was 46.64 ± 6.13 ^bc %. The “% ROS Generation” value ([4]; 0.2 μM) was 75.96 ± 2.21 ^ab % and the “% ROS Generation” value ([4]; 0.25 μM) was 57.18 ± 1.66% and 57.18 ± 1.66 ^bc %.
CSc1ccc2c(c1)Sc1cc3ccccc3nc1N2CCCCS(=O)(=O)O [Compound 12, 4-(9-methylthio[3,2-b]benzo[1,4]thiazin-6-yl)butane-1-sulfonic acid] showed a DPPH mean inhibition [1] of 5.53%, an IC50 [2] of 1800 nM and an IC50 [3] of 566 nM. The “% ROS Generation” value ([4]; 0.02 μM) was 119.82 ± 5.12% and 119.82 ± 5.12 ^a %, the “% ROS Generation” value ([4]; 0.06 μM) was 102.85 ± 1.47 ^b % and the “% ROS Generation” value ([4]; 0.1 μM) was 97.18 ± 2.61 ^b %. For the same compound, the “% ROS Generation” value ([4]; 0.2 μM) was 80.38 ± 1.72 ^c % and the “% ROS Generation” value ([4]; 0.25 μM) was 60.12 ± 1.74% and 60.12 ± 1.74 ^d %.
With O=C(O)CN(CCN(CC(=O)O)CC(=O)O)CC(=O)O [EDTA] the Chelating activity [5] was “increasing inhibitory action with increased concentration”.
In the case of N=C(N)NN [aminoguanidine, reference compound], the IC50 [2] is reported as 310 nM.
For O=C1O[C@H]([C@@H](O)CO)C(O)=C1O [ascorbic acid, reference compound], the DPPH mean inhibition [1] was 54.24%.
